Results as given in PubChem BioAssay AID504877 (The Scripps Research Institute Molecular Screening Center, 2011).
pEC50: −log10 of the molar value. Several values for one entry are separate records, joined by “and”; a condition that tells them apart may be missing. Identical values can stand only once. Activity calls are given as the source filed them. How the calls were made is not given here.

Molecular target: Sphingosine 1-phosphate receptor 4 (Homo sapiens) (UniProt O95977)
Assay: S1P4 receptor agonist potency, late-stage follow-up, cell-based, fluorescence, dose response, synthesized compounds set 2 (AID 504877)
Settings: S1P4 cell-based agonist assay, fluorescence read-out

SMILES | pEC50 (run 1) | pEC50 (run 2) | pEC50 (run 3) | EC50 (run 2) | EC50 (run 1) | EC50 (run 3)
Cc1cc(/C=c2\sc3n(c2=O)CCCN=3)c(C)n1-c1ccccc1F | – | – | – | > 50000 nM (inactive) | > 50000 nM (inactive) | > 50000 nM (inactive)
CCN=C1S/C(=C/c2cc(C)n(C(C)c3ccccc3)c2C)C(=O)N1CC (stereo not drawn) | – | – | – | > 50000 nM (inactive) | inactive | inactive
COCCN=C1S/C(=C\c2cc(C)n(Cc3ccccc3)c2C)C(=O)N1CCOC | – | – | – | > 50000 nM (inactive) | > 50000 nM (inactive) | inactive
CCN=C1S/C(=C/c2cc(C)n(Cc3ccccc3)c2C)C(=O)N1CC | 6.22 | 6.15 | 6.81 | – | – | –
CN=C1S/C(=C\c2ccn(Cc3ccccc3)c2)C(=O)N1C | – | – | – | > 50000 nM (inactive) | > 50000 nM (inactive) | > 50000 nM (inactive)
CCN=C1S/C(=C\c2cc(C)n(-c3ccccc3)c2C)C(=O)N1CC | 6.20 | 6.15 | 6.33 | – | – | –
CCN=C1S/C(=C\c2ccn(-c3ccccc3F)c2)C(=O)N1CC | – | – | – | > 50000 nM (inactive) | > 50000 nM (inactive) | inactive
CC/N=C1/SC(=Cc2cc(C)n(Cc3ccccc3OC)c2C)C(=O)N1CC | 6.56 | 6.18 | 6.55 | – | – | –
CCN=C1S/C(=C/c2cc(C)n(-c3ccccn3)c2C)C(=O)N1CC | 6.80 | 6.67 | 6.99 | – | – | –
Cc1cc(/C=C2\SC(=Nc3ccccc3)NC2=O)c(C)n1-c1ccccc1F | – | – | – | > 50000 nM (inactive) | > 50000 nM (inactive) | > 50000 nM (inactive)
CCN=C1S/C(=C\c2cc(C)n(Cc3ccccc3F)c2C)C(=O)N1CC | – | – | – | > 50000 nM (inactive) | > 50000 nM (inactive) | > 50000 nM (inactive)
CCN=C1S/C(=C/c2ccn(-c3ccc(F)cc3F)c2)C(=O)N1CC | – | – | 5.27 | > 50000 nM (inactive) | inactive | –

Further lines, results first:

pEC50 (run 1) | pEC50 (run 2) | pEC50 (run 3) | EC50 (run 2) | EC50 (run 1) | EC50 (run 3) | SMILES
6.69 | 6.34 | 6.89 | – | – | – | CN=C1S/C(=C/c2cc(C)n(Cc3ccccc3)c2C)C(=O)N1C
5.27 | – | 6.04 | inactive | – | – | CCN=C1S/C(=C/c2cc(C)n(-c3ncccc3F)c2C)C(=O)N1CC
– | – | – | > 50000 nM (inactive) | > 50000 nM (inactive) | > 50000 nM (inactive) | CN=C1S/C(=C\c2ccn(-c3ccccc3F)c2)C(=O)N1C
– | – | – | > 50000 nM (inactive) | > 50000 nM (inactive) | > 50000 nM (inactive) | Cc1cc(/C=C2\SC(=NC(C)C)N(C(C)C)C2=O)c(C)n1-c1ccccc1F
7.42 and 7.29 | 7.10 | – | – | – | – | COCCN=C1S/C(=C\c2cc(C)n(-c3ccc(F)cc3F)c2C)C(=O)N1C
6.36 | 6.16 | 6.69 | – | – | – | CN=C1S/C(=C/c2cc(C)n(-c3ccc(Cl)cc3F)c2C)C(=O)N1C
– | – | – | > 50000 nM (inactive) | > 50000 nM (inactive) | inactive | CN=C1S/C(=C/c2cc(C)n(-c3ccccc3C)c2C)C(=O)N1C
– | – | – | > 50000 nM (inactive) | > 50000 nM (inactive) | > 50000 nM (inactive) | CN=C1S/C(=C/c2cc(C)n(-c3cc(C)ccc3OC)c2C)C(=O)N1C
– | – | – | > 50000 nM (inactive) | > 50000 nM (inactive) | > 50000 nM (inactive) | CN=C1S/C(=C\c2cc(C)n(-c3ccccc3Br)c2C)C(=O)N1C
– | – | – | > 50000 nM (inactive) | > 50000 nM (inactive) | > 50000 nM (inactive) | CN=C1NC(=O)/C(=C\c2cc(C)n(-c3cccc(F)c3)c2C)S1
6.95 | 6.70 | 6.50 | – | – | – | CN=C1S/C(=C/c2cc(C)n(-c3ccc(F)cc3F)c2C)C(=O)N1C
– | – | 5.05 | > 50000 nM (inactive) | > 50000 nM (inactive) | – | Cc1cc(/C=C2\SC(=O)N(C)C2=O)c(C)n1-c1ccccc1F
6.94 | 6.57 | 6.43 | – | – | – | CCN=C1S/C(=C\c2cc(C)n(-c3ccccc3F)c2C)C(=O)N1CC
7.07 | 6.71 | 6.79 | – | – | – | C/N=C1/SC(=Cc2cc(C)n(Cc3ccc(F)cc3F)c2C)C(=O)N1C
7.12 | 6.88 | 6.98 | – | – | – | CCN=C1S/C(=C/c2cc(C)n(-c3ccc(F)cc3F)c2C)C(=O)N1CC
5.27 | 5.34 | 6.03 | – | – | – | CN=C1NC(=O)/C(=C\c2cc(C)n(-c3ccccc3F)c2C)S1
5.80 | 8.73 | – | – | – | – | CN=C1S/C(=C\c2cc(C)n(-c3ccc(F)cc3F)c2C)C(=O)N1CCOC
6.31 | 6.13 | 6.43 | – | – | – | CCN=C1S/C(=C/c2cc(C)n(-c3ccc(Cl)cc3F)c2C)C(=O)N1CC
